SMILES strings stand for the structures.

Sequence of cruzipain (P25779 123-467): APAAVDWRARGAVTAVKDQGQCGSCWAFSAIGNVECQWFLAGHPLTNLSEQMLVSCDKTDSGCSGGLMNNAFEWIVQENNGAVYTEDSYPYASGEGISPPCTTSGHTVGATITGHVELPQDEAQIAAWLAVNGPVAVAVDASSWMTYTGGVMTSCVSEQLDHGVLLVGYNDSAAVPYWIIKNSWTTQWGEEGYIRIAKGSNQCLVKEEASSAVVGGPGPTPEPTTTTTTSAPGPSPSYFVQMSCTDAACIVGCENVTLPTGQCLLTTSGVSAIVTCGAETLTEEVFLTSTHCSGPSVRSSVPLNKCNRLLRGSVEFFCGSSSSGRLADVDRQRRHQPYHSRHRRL

For the test, the target named is cruzipain (Trypanosoma cruzi, UniProt P25779). Kind of test: biochemical. The note with it: 50 pM cruzipain, pH 5.5, 15 minutes preincubation, 2 μM Z-Phe-Arg-AMC substrate. On the procedure:
The assay solutions were mixed and incubated for 15 minutes at room temperature prior to the addition of 2 μM of Z-Phe-Arg-AMC substrate. […] Percent of inhibition were calculated by fitting experimental values to standard mathematical model for dose response curve.
Usually IC50 stands for the concentration that inhibits the measured activity by half. In turn, `CC(C)(F)C[C@H](N[C@@H](c1ccc(-c2ccc(S(C)(=O)=O)cc2)cc1)C(F)(F)F)C(=O)NC(C#N)Cc1ccc(F)cc1F` (stereo partly drawn) [Example 34, (S)-4-Fluoro-4-methyl-2-[(S)-2,2,2-trifluoro-1-(4′-methanesulfonyl-biphenyl-4-yl)-ethylamino]-pentanoic acid [cyano-(2,4-difluoro-benzyl)-methyl]-amide] displayed an IC50 of 2.6 nM.
The same measure for `CC(C)(F)C[C@H](N[C@@H](c1ccc(-c2ccc(C3(C(=O)NCC(F)(F)F)CC3)cc2)cc1)C(F)(F)F)C(=O)N[C@H](C#N)Cc1ccccc1` [Example 54, 1-[4′-((S)-1-{(S)-1-[((S)-Benzyl-cyano-methyl)-carbamoyl]-3-fluoro-3-methyl-butylamino}-2,2,2-trifluoro-ethyl)-biphenyl-4-yl]-cyclopropanecarboxylic acid (2,2,2-trifluoro-ethyl)-amide]: 9.4 nM; for `CC(C)[C@H](N[C@@H](c1ccc(-c2ccc(S(C)(=O)=O)cc2)cc1)C(F)(F)F)C(=O)N[C@H](C#N)Cc1ccc(C(F)(F)F)cc1F` [Example 62, (S)-N-[(S)-Cyano-(2-fluoro-4-trifluoromethyl-benzyl)-methyl]-3-methyl-2-[(S)-2,2,2-trifluoro-1-(4′-methanesulfonyl-biphenyl-4-yl)-ethylamino]-butyramide]: 0.4 nM.
The compound `CC(C)(F)C[C@H](N[C@@H](c1ccc(-c2ccc(S(N)(=O)=O)cc2)cc1)C(F)(F)F)C(=O)N[C@H](C#N)Cc1ccccc1` [Example 31, (S)-4-Fluoro-4-methyl-2-[(S)-2,2,2-trifluoro-1-(4′-sulfamoyl-biphenyl-4-yl)-ethylamino]-pentanoic acid ((S)-1-cyano-2-phenyl-ethyl)-amide] showed a half-inhibitory concentration (IC50) of 16 nM.
The same measure for `CC(C)(F)C[C@H](N[C@@H](c1ccc(-c2ccc(S(C)(=O)=O)cc2)cc1)C(F)(F)F)C(=O)N[C@H](C#N)Cc1ccc(-c2cccnc2)cc1` [Example 14, (S)-4-Fluoro-4-methyl-2-[(S)-2,2,2-trifluoro-1-(4′-methanesulfonyl-biphenyl-4-yl)-ethylamino]-pentanoic acid [(S)-1-cyano-2-(4-pyridin-3-yl-phenyl)-ethyl]-amide]: 7 nM; for `CC(C)C[C@H](N[C@@H](c1ccc(Br)cc1)C(F)(F)F)C(=O)N[C@H](C#N)Cc1ccc(S(C)(=O)=O)cc1` [Example 9, (S)-2-[(S)-1-(4-Bromo-phenyl)-2,2,2-trifluoro-ethylamino]-4-methyl-pentanoic acid [(S)-1-cyano-2-(4-methanesulfonyl-phenyl)-ethyl]-amide]: 0.6 nM.
For `CC(C)(F)C[C@H](N[C@@H](c1ccc(-c2ccc(C3(c4ncon4)CC3)cc2)cc1)C(F)(F)F)C(=O)N[C@H](C#N)Cc1ccccc1` [Example 29, (S)-4-Fluoro-4-methyl-2-{(S)-2,2,2-trifluoro-1-[4′-(1-[1,2,4]oxadiazol-3-yl-cyclopropyl)-biphenyl-4-yl]-ethylamino}-pentanoic acid ((S)-1-cyano-2-phenyl-ethyl)-amide] the value was 20 nM; for `CC(C)(F)C[C@H](N[C@@H](c1ccc(-c2ccc(-c3cc[n+]([O-])cc3)cc2)cc1)C(F)(F)F)C(=O)N[C@H](C#N)Cc1ccccc1` [Example 45, (S)-4-Fluoro-4-methyl-2-{(S)-2,2,2-trifluoro-1-[4′-(1-oxy-pyridin-4-yl)-biphenyl-4-yl]-ethylamino}-pentanoic acid ((S)-1-cyano-2-phenyl-ethyl)-amide], 7.8 nM; for `CC(C)[C@H](N[C@@H](c1ccc(-c2ccc(S(C)(=O)=O)cc2)cc1)C(F)(F)F)C(=O)N[C@H](C#N)Cc1c(F)cc(Br)cc1F` [Example 70, (S)-N-[(S)-(4-Bromo-2,6-difluoro-benzyl)-cyano-methyl]-3-methyl-2-[(S)-2,2,2-trifluoro-1-(4′-methanesulfonyl-biphenyl-4-yl)-ethylamino]-butyramide], 0.6 nM.
The compound `CC(C)(F)C[C@H](N[C@@H](c1ccc(-c2ccc(S(C)(=O)=O)cc2)cc1)C(F)(F)F)C(=O)N[C@H](C#N)Cc1c(F)cc(Br)cc1F` [Example 66, (S)-4-Fluoro-4-methyl-2-[(S)-2,2,2-trifluoro-1-(4′-methanesulfonyl-biphenyl-4-yl)-ethylamino]-pentanoic acid [(S)-(4-bromo-2,6-difluorobenzyl)-cyano-methyl]-amide] displayed an IC50 of 1.6 nM.
`CC(C)[C@H](N[C@@H](c1ccc(-c2ccc(N3CCNCC3)cc2)cc1)C(F)(F)F)C(=O)N[C@H](C#N)Cc1ccccc1` [Example 47, 4-[4′-((S)-1-{(S)-1-[((S)-Benzyl-cyano-methyl)-carbamoyl]-2-methyl-propylamino}-2,2,2-trifluoro-ethyl)-biphenyl-4-yl]-piperazin-1-ium; chloride] registered a half-inhibitory concentration (IC50) of 0.1 nM.
Compound `CC(C)(F)C[C@H](N[C@@H](c1ccc(-c2ccc(-c3ccc(S(C)(=O)=O)cc3)cc2)cc1)C(F)(F)F)C(=O)N[C@H](C#N)Cc1ccccc1` [Example 24, (S)-4-Fluoro-4-methyl-2-[(S)-2,2,2-trifluoro-1-(4-methanesulfonyl-[1,1′;4′,1″]terphenyl-4″-yl)-ethylamino]-pentanoic acid ((S)-benzyl-cyano-methyl)-amide] showed an IC50 of 16 nM.
In the case of `CC(C)(F)C[C@H](N[C@@H](c1ccc(-c2ccc(C3(C(=O)NC4CC4)CC3)cc2)cc1)C(F)(F)F)C(=O)N[C@H](C#N)Cc1ccccc1` [Example 56, 1-[4′-((S)-1-{(S)-1-[((S)-Benzyl-cyano-methyl)-carbamoyl]-3-fluoro-3-methyl-butylamino}-2,2,2-trifluoro-ethyl)-biphenyl-4-yl]-cyclopropanecarboxylic acid cyclopropylamide], half-maximal inhibition (IC50) was put at 3.7 nM.
Turning to `C=CCNC(=O)C1(c2ccc(-c3ccc([C@H](N[C@@H](CC(C)(C)F)C(=O)N[C@H](C#N)Cc4ccccc4)C(F)(F)F)cc3)cc2)CC1` [Example 57, 1-[4′-((S)-1-{(S)-1-[((S)-Benzyl-cyano-methyl)-carbamoyl]-3-fluoro-3-methyl-butylamino}-2,2,2-trifluoro-ethyl)-biphenyl-4-yl]-cyclopropanecarboxylic acid allylamide], the half-maximal inhibitory concentration (IC50) is 4.3 nM.
As for `C[S+]([O-])c1ccc(-c2ccc([C@H](N[C@@H](CC(C)(C)F)C(=O)N[C@H](C#N)Cc3ccc(C#N)cc3F)C(F)(F)F)cc2)cc1` (stereo partly drawn) [Example 25, (S)-4-Fluoro-4-methyl-2-[(S)-2,2,2-trifluoro-1-(4′-methanesulfinyl-biphenyl-4-yl)-ethylamino]-pentanoic acid [(S)-1-cyano-2-(4-cyano-2-fluoro-phenyl)-ethyl]-amide], the IC50 amounted to 0.75 nM.
As to `CC(C)(F)C[C@H](N[C@@H](c1ccc(-c2ccc(S(C)(=O)=O)cc2)cc1)C(F)(F)F)C(=O)N[C@H](C#N)Cc1ccc(F)cc1` [Example 16, (S)-4-Fluoro-4-methyl-2-[(S)-2,2,2-trifluoro-1-(4′-methanesulfonyl-biphenyl-4-yl)-ethylamino]-pentanoic acid [(S)-cyano-(4-fluoro-benzyl)-methyl]-amide], the concentration for half-maximal inhibition (IC50) came out at 6.1 nM.
The same measure for `CC(C)[C@H](N[C@@H](c1ccc(-c2ccc([C@@H](O)C(F)F)cc2)cc1)C(F)(F)F)C(=O)N[C@H](C#N)Cc1ccc(C(F)(F)F)cc1F` [Example 61, (S)-N-[(S)-Cyano-(2-fluoro-4-trifluoromethyl-benzyl)-methyl]-2-{(S)-1-[4′-((R)-2,2-difluoro-1-hydroxy-ethyl)-biphenyl-4-yl]-2,2,2-trifluoro-ethylamino}-3-methyl-butyramide]: 1.5 nM.
